This experiment relates to voltage gated K+ channels. In words: test assay chosen for cells expressing voltage gated K+ channels (opening of voltage-gated potassium channels). The following applies: relative potency. The format is cell-based. Here is the method: Utilizing screening assays such as described above, compounds of the invention were tested for their ability to open voltage-gated potassium channels. The results of these assays are set forth in Table 1 in which the data are presented in terms of relative potency of the compounds tested to one another.
This example illustrates screening protocols for evaluating putative potassium channel agonists for the ability to open voltage-gated potassium channels.
NG108-15 cells, a mouse neuroblastoma, rat glioma hybrid cell line, functionally express M-currents (Robbins et al., J. Physiol. 451: 159–85 (1992). NG108-15 M-currents are likely comprised, at least in part, of KCNQ2, KCNQ3 and KCNQ5, since these genes are reportedly robustly expressed in differentiated NG108-15 cells (Selyanko et al., J. Neurosci. 19(18): 7742–56 (1999); Schroeder et al., J. Biol. Chem. 275(31): 24089–95 (2000)) and KCNQ3 dominant- negative constructs reduce M-current density in these cells (Selyanko et al., J. Neurosci. 22(5): RC212 (2002).
NG108–15 are maintained in DMEM (high glucose) supplemented with 10% fetal bovine serum, 0.05 mM pyridoxine, 0.1 mM hypoxanthine, 400 nM aminopterin, […] thymidine, 50 μgml^−1 gentamycin and 10 mM HEPES, in an incubator at 37° C. with a humidified atmosphere of 5% CO2. Cells are plated in 96 well plates and are differentiated by addition of 10 μM PGE1 and 50 μM isomethylbutylxanthine to the growth media prior to study.
Differentiated NG108–15 cells are loaded with voltage-sensitive dye by incubation in Earls Balanced Salt Solution (EBSS) containing […] DiBAC for 1 h. Following loading, drug solution containing […] DiBAC is added to each well. Changes in fluorescence are measured every 30 s for 25 min. The maximum change in fluorescence is measured and can be expressed as a percentage of the maximum response obtained in the presence of a positive control agent.
Alternatively, cells expressing voltage-gated K^+ channels, such as KCNQ2-like channels can be loaded with ^86Rb^+ by culture in media containing ^86RbCl. Following loading, culture media is removed and the cells are washed in EBSS to remove residual traces of ^86Rb^+. Cells are preincubated with drug (0.01–30 μM in EBSS) and then ^86Rb^+ efflux is stimulated by exposing cells to EBSS solution supplemented with a sub-maximal concentration of KCl (generally 7–20 mM) in the continued presence of drug. After a suitable efflux period, the EBSS/KCl solution is removed from the cells and the ^86Rb^+ content can be determined by Cherenkov counting (Wallac Trilux). Cells are then lysed with a SDS solution and the ^86Rb^+ content of the lysate can be determined. Percent ^86Rb^+ efflux is calculated according to: (^86Rb^+ content in EBSS/(^86Rb^+ content in EBSS+^86Rb^+ content of the lysate))*100
Efflux is normalized to the maximal ^86Rb^+ efflux (i.e., that which can be induced by a high concentration of KCl, generally 30–135 mM).

The term EC50 denotes the midpoint of the concentration-response curve. Read a high EC50 as weaker potency.

Compound `O=C(Nc1cnc(Cl)nc1)c1cccc(Cl)c1` [Compound 5, 3-Chloro-N-(2-chloro-pyrimidin-5-yl)-benzamide] registered an EC50 of 1000 to 10000 nM.

`O=C(Nc1cnc(Cl)nc1)c1ccc(Cl)c(F)c1` [Compound 44, 4-Chloro-N-(2-chloro-pyrimidin-5-yl)-3-fluoro-benzamide]: the EC50 is less than 500 nM.

In the case of `O=C(Nc1cnc(Cl)nc1)c1ccc(Cl)s1` [Compound 20, 5-Chloro-thiophene-2-carboxylic acid (2-chloro-pyrimidin-5-yl)-amide], the EC50 lay within 500 to 1000 nM.

For the compound `CC(C)S(=O)(=O)c1ccc(C(=O)Nc2cnc(Cl)nc2)cc1F` [Compound 91, N-(5-amino-2-chloro-pyrimidine)-3-fluoro-4-(propane-2-sulfonyl)-benzamide], the EC50 was 1000 to 10000 nM.

On to `O=C(Nc1cnc(Cl)nc1)c1cccc(F)c1` [Compound 9, N-(2-chloro-pyrimidin-5-yl)-3-fluoro-benzamide], for which the EC50 was 1000 to 10000 nM.

Regarding `Cc1ncc(NC(=O)c2ccc(F)c(F)c2)cn1` [Compound 8, 3,4-difluoro-N-(2-methyl-pyrimidin-5-yl)-benzamide], the concentration for a half-maximal effect (EC50) lay within 1000 to 10000 nM.

`Cc1ccc(C(=O)Nc2cnc(Cl)nc2)cc1F` [Compound 90, N-(2-Chloro-pyrimidin-5-yl)-3-fluoro-4-methyl-benzamide] showed a half-maximal effective concentration (EC50) of 500 to 1000 nM.

`O=C(Nc1cnc(Cl)nc1)c1ccc(F)c(F)c1` [Compound 4, N-(2-Chloro-pyrimidin-5-yl)-3,4-difluoro-benzamide] had an EC50 of 500 to 1000 nM.

Turning to `O=C(Nc1cnc(Cl)nc1)c1cccc(C(F)(F)F)c1` [Compound 3, N-(2-chloro-pyrimidin-5-yl)-3-trifluoromethyl-benzamide], the EC50 lay in the range of 1000 to 10000 nM.

Source of the values: patent publication US7205307B2, “Pyrimidines as novel openers of potassium ion channels” (Icagen, Inc., priority 2002, dated 2007).
